Where two headings read alike, the source gives them in different places.
Legend:
[1] = test system: Phosphorylation of ERK1/2 in MIA PaCa-2 cells; test: Phospho-ERK1/2 MSD assay in MIA PaCa-2 cells; format: cell-based; settings: read-out: p-ERK IC50 (2 h; MIA PaCa-2), 2 h compound treatment
Summary of the method: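 In the procedure, cells were plated a day ahead at 25,000 per well. Next, a dilution series of compound in growth medium was added for 2 or 4 h. EGF (10 ng/mL) stimulation for 10 min preceded washing and RIPA lysis. Lysate phospho-ERK1/2 was read by MSD, with IC50 derived by 4-parameter logistic analysis.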

[2] = target: GDP-bound KRAS protein (aa 1-169), containing both G12C and C118A amino acid substitutions (Homo sapiens, UniProt P01116, C118A/G12C); test: Coupled nucleotide exchange assay (SOS-mediated, AlphaScreen); format: biochemical; settings: 5 min compound pre-incubation
Chain of GDP-bound KRAS protein (aa 1-169), containing both G12C and C118A amino acid substitutions (P01116 1-169 isoform P01116-2 G12C/C118A): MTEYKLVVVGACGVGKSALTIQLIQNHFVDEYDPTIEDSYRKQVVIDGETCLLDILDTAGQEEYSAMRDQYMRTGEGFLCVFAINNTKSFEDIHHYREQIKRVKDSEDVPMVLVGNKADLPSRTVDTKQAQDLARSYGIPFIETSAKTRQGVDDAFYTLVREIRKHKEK

Structure (SMILES)	IC50 ([1]; Homo sapiens, MIA PaCa-2, 2 h) [nM]	Coupled exchange IC50 (5 min) [2]	IC50 [1] [nM]	IC50 ([2]; read-out: Coupled exchange IC50 (5 min)) [nM]
C=CC(=O)N1C[C@H](C)N(c2nc(=O)n(-c3c(C(C)C)ncnc3C(C)C)c3nc(-c4ccccc4F)c(Cl)cc23)[C@@H](C)C1 [Example 87-1, 6-Chloro-4-((2S,6S)-2,6-dimethyl-4-(2-propenoyl)-1-piperazinyl)-1-(4,6-di(2-propanyl)-5-pyrimidinyl)-7-(2-fluorophenyl)pyrido[2,3-d]pyrimidin-2(1H)-one]	11	0.034 | nda μM		
C=CC(=O)N1C[C@@H](C)N(c2nc(=O)n(-c3c(C(C)C)ncnc3C(C)C)c3nc(-c4ccccc4F)c(Cl)cc23)[C@@H](C)C1 [Example 87-2, 6-chloro-4-((2R,6S)-2,6-dimethyl-4-(2-propenoyl)-1-piperazinyl)-1-(4,6-di(2-propanyl)-5-pyrimidinyl)-7-(2-fluorophenyl)pyrido[2,3-d]pyrimidin-2(1H)-one]	33	0.035 | nda μM		
C=CC(=O)N1CCN(c2nc(=O)n(-c3c(C(C)C)ncnc3C(C)C)c3nc(-c4ccc(C#N)cc4F)c(Cl)cc23)[C@@H](C)C1 [Example 87-4, 4-(6-chloro-1-(4,6-di(2-propanyl)-5-pyrimidinyl)-4-((2S)-2-methyl-4-(2-propenoyl)-1-piperazinyl)-2-oxo-1,2-dihydropyrido[2,3-d]pyrimidin-7-yl)-3-fluorobenzonitrile]	262	0.254 | nda μM		
C=CC(=O)N1CCN(c2nc(=O)n(-c3c(C(C)C)ncnc3C(C)C)c3nc(-c4ccc(F)cc4N)c(Cl)cc23)[C@@H](C)C1 [Example 87-5, 7-(2-amino-4-fluoropheny-1)-6-chloro-1-(4,6-di(2-propanyl)-5-pyrimidinyl)-4-((2S)-2-methyl-4-(2-propenoyl)-1-piperazinyl)pyrido[2,3-d]pyrimidin-2(1H)-one]	181	0.251 | nda μM		
C=CC(=O)N1CCN(c2nc(=O)n(-c3ccccc3C(C)C)c3nc(-c4c(F)cccc4C#N)c(Cl)cc23)[C@@H](C)C1 [Example 98, 2-(6-Chloro-4-((2S)-2-methyl-4-(2-propenoyl)-1-piperazinyl)-2-oxo-1-(2-(2-propanyl)phenyl)-1,2-dihydropyrido[2,3-d]pyrimidin-7-yl)-3-fluorobenzonitrile]	207	0.27 | nda μM		
C=CC(=O)N1CCN(c2nc(=O)n(-c3ncncc3C(C)C)c3nc(-c4ccccc4F)c(Cl)cc23)[C@@H](C)C1 [Example 99, 6-Chloro-7-(2-fluorophenyl)-4-((2S)-2-methyl-4-(2-propenoyl)-1-piperazinyl)-1-(5-(2-propanyl)-4-pyrimidinyl)pyrido[2,3-d]pyrimidin-(1H)-one]			72	237
C=CC(=O)N1CCN(c2nc(=O)n(-c3cccnc3CC(C)C)c3nc(-c4ccccc4F)c(Cl)cc23)[C@@H](C)C1 [Example 101, 6-Chloro-7-(2-fluorophenyl)-4-((2S)-2-methyl-4-(2-propenoyl)-1-piperazinyl)-1-(2-(2-methylpropyl)-3-pyridinyl)pyrido[2,3-d]pyrimidin-2(1H)-one]	148	0.147 | nda μM		
C=CC(=O)N1CCN(c2nc(=O)n(-c3c(C)cccc3C(C)C)c3nc(-c4ccccc4F)c(C)cc23)[C@@H](C)C1 [Example 102, 7-(2-Fluorophenyl)-6-methyl-1-(2-methyl-6-(2-propanyl)phenyl)-4-((2S)-2-methyl-4-(2-propenoyl)-1-piperazinyl)pyrido[2,3-d]pyrimidin-2(1H)-one]	667	0.421 | nda μM		
C=CC(=O)N1CCN(c2nc(=O)n(-c3c(CC)cccc3CC)c3cc(-c4ccccc4F)c(Cl)cc23)[C@@H](C)C1 [Example 103, 6-Chloro-1-(2,6-diethylphenyl)-7-(2-fluorophenyl)-4-((2S)-2-methyl-4-(2-propenoyl)-1-piperazinyl)-2(1H)-quinazolinone]	178	0.099 | nda μM		

Results, then the molecule that gave them:

IC50 ([1]; Homo sapiens, MIA PaCa-2, 2 h) [nM]	Coupled exchange IC50 (5 min) [2]	IC50 [1] [nM]	IC50 ([2]; read-out: Coupled exchange IC50 (5 min)) [nM]	Structure (SMILES)
78	0.062 | nda μM			C=CC(=O)N1CCN(c2nc(=O)n(-c3ncccc3C(C)C)c3cc(-c4ccccc4F)c(Cl)cc23)[C@@H](C)C1 [Example 104, 6-Chloro-7-(2-fluorophenyl)-4-((2S)-2-methyl-4-(2-propenoyl)-1-piperazinyl)-1-(3-(2-propanyl)-2-pyridinyl)-2(1H)-quinazolinone]
65	0.051 | nda μM			C=CC(=O)N1CCN(c2nc(=O)n(-c3scnc3C(C)C)c3cc(-c4ccccc4F)c(Cl)cc23)[C@@H](C)C1 [Example 105, 6-Chloro-7-(2-fluorophenyl)-4-((2S)-2-methyl-4-(2-propenoyl)-1-piperazinyl)-1-(4-(2-propanyl)-1,3-thiazol-5-yl)-2(1H)-quinazolinone]
105	0.074 | nda μM			C=CC(=O)N1CCN(c2nc(=O)n(-c3c(C)cccc3C(C)C)c3cc(-c4c(O)cccc4F)c(Cl)cc23)[C@@H](C)C1 [Example 106, 6-Chloro-7-(2-fluoro-6-hydroxyphenyl)-1-(2-methyl-6-(2-propanyl)phenyl)-4-((2S)-2-methyl-4-(2-propenoyl)-1-piperazinyl)-2(1H)-quinazolinone]
426	0.166 | nda μM			C=CC(=O)N1CCN(c2nc(=O)n(-c3ccccc3C(C)C)c3cc(-c4ccccc4F)c(Cl)nc23)[C@@H](C)C1 [Example 110, 6-Chloro-7-(2-fluorophenyl)-4-((2S)-2-methyl-4-(2-propenoyl)-1-piperazinyl)-1-(2-(2-propanyl)phenyl)pyrido[3,2-d]pyrimidin-2(1H)-one]
195	0.174 | nda μM			C=CC(=O)N1CCN(c2nc(=O)n(-c3c(C)ccnc3C(C)C)c3nc(-c4ccccc4F)c(Cl)nc23)[C@@H](C)C1 [Example 111, 6-Chloro-7-(2-fluorophenyl)-1-(4-methyl-2-(2-propanyl)-3-pyridinyl)-4-((2S)-2-methyl-4-(2-propenoyl)-1-piperazinyl)-2(1H)-pteridinone]
543	0.232 | nda μM			C=CC(=O)N1CCN(c2nc(=S)n(-c3c(CC)cccc3CC)c3cc(-c4ccccc4F)c(Cl)cc23)[C@@H](C)C1 [Example 116, 1-((3S)-4-(6-Chloro-1-(2,6-diethylphenyl)-7-(2-fluorophenyl)-2-sulfanylidene-1,2-dihydro-4-quinazolinyl)-3-methyl-1-piperazinyl)-2-propen-1-one]
1720	2.05 | nda μM			C=CC(=O)N1CCN(c2cc(=O)n(-c3ccccc3C(C)C)c3nc(-c4ccccc4F)c(Cl)cc23)[C@@H](C)C1 [Example 126, 6-Chloro-7-(2-fluorophenyl)-4-((2S)-2-methyl-4-(2-propenoyl)-1-piperazinyl)-1-(2-(2-propanyl)phenyl)-1,8-naphthyridin-2(1H)-one]
10000	0.107 | nda μM			C=CC(=O)N1CCN(c2nc(=O)n(-c3c(C(=O)O)cccc3C(C)C)c3nc(-c4ccccc4F)c(Cl)cc23)[C@@H](C)C1 [Example 132, 2-(6-Chloro-7-(2-fluorophenyl)-4-((2S)-2-methyl-4-(2-propenoyl)-1-piperazinyl)-2-oxopyrido[2,3-d]pyrimidin-1(2H)-yl)-3-(2-propanyl)benzoic acid]
